31 molecules from patent publication US20260297070A1, “CYCLIC [COMPOUND LEFT OUT] WRN INHIBITORS” (Nimbus Wadjet, Inc., priority 2023, published 2026) can be followed below.

T1 sequence (Q14191 with tags, fused parts or gaps L1074F limits assumed): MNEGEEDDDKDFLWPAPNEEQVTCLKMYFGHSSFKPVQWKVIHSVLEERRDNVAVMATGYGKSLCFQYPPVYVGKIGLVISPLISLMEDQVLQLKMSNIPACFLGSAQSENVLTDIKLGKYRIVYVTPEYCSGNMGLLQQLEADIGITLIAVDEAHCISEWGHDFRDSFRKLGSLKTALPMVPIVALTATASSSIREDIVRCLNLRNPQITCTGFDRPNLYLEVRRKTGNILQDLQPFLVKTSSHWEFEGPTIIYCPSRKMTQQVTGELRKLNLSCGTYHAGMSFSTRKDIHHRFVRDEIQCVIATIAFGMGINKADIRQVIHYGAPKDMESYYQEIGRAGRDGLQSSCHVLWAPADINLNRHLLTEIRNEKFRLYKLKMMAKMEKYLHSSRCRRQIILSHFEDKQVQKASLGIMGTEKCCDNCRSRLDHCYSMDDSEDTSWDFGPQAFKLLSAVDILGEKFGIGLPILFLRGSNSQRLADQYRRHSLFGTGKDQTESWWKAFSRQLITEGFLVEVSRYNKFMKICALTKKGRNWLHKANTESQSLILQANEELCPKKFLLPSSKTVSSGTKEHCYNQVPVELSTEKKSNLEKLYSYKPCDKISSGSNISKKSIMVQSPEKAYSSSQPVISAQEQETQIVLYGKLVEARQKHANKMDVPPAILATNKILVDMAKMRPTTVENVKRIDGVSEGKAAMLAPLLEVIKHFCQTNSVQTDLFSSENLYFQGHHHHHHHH

The first experiment concerns the target T1, human Werner helicase (WRN-BV08, Uniprot Q14191, amino acids 517-1235 with L1074F point mutation) (Homo sapiens, UniProt Q14191, L1074F).
T1 construct: Uniprot Q14191, amino acids 517-1235 with L1074F point mutation; TEV-cleavable 8×His (C, cleaved yes); made in house; host or cells: Sf9 insect cells (baculovirus)
The experiment is described as follows: WRN (BV08) ADP-Glo Assay. The experiment is classed as biochemical. To be noted: 0.15 nM WRN, 5 μM ATP, 0.1 nM DNA duplex, 15 min preincubation, 60 min at 25° C., pH 7.5, 1% DMSO; read-out: ADP-Glo_hWRN_IC50. The procedure, abridged:
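Helicase ATPase activity is measured at 25 °C over 60 min using 0.15 nM enzyme, 5 μM ATP and 0.1 nM DNA duplex, final DMSO 1%. ADP production is detected by luminescence, with IC50 derived by curve fitting.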
For orientation: ADP-Glo first removes unused ATP, then detects ADP through luciferase.
`O=C(Cc1ccc(-n2cccc2)cc1)N(C1C=CS(=O)(=O)C1)C1CCCc2cnccc21` (stereo not shown) [I-471, N-(1,1-dioxo-2,3-dihydro-1lambda6-thiophen-3-yl)-2-[4-(1H-pyrrol-1-yl)phenyl]-N-(5,6,7,8-tetrahydroisoquinolin-5-yl)acetamide]: the IC50 is greater than 50 µM.

As for `O=C(Cc1ccc(-n2cccc2)cc1)N(Cc1ccnc2[nH]cnc12)C1C=CS(=O)(=O)C1` (stereo not shown) [I-472, N-(1,1-dioxo-2,3-dihydro-1lambda6-thiophen-3-yl)-N-({3H-imidazo[4,5-b]pyridin-7-yl}methyl)-2-[4-(1H-pyrrol-1-yl)phenyl]acetamide], the IC50 was greater than 50 µM.

Turning to `CN(C)C(=O)C(C(=O)N(Cc1ccncc1)C1C=CS(=O)(=O)C1)c1ccc(Br)cc1` (stereo not shown) [I-474, 2-(4-bromophenyl)-N′-(1,1-dioxo-2,3-dihydro-1lambda6-thiophen-3-yl)-N,N-dimethyl-N′-[(pyridin-4-yl)methyl]propanediamide], the IC50 was greater than 50 µM.

With `CN(C)C(=O)CC(C(=O)N(Cc1ccncc1)C1C=CS(=O)(=O)C1)c1ccc(-c2ccc(F)cc2)cc1` (stereo not shown) [I-475, N-(1,1-dioxo-2,3-dihydro-1lambda6-thiophen-3-yl)-2-{4′-fluoro-[1,1′-biphenyl]-4-yl}-N′,N′-dimethyl-N-[(pyridin-4-yl)methyl]butanediamide], the IC50 is greater than 50 µM.

As for `O=C(C1CCc2cc(-n3cccc3)ccc21)N(Cc1ccncc1)C1C=CS(=O)(=O)C1` (stereo not shown) [I-477, N-(1,1-dioxo-2,3-dihydro-1lambda6-thiophen-3-yl)-N-[(pyridin-4-yl)methyl]-5-(1H-pyrrol-1-yl)-2,3-dihydro-1H-indene-1-carboxamide], the IC50 is greater than 50 µM.

`O=C(Cc1ccc(-n2cccc2)cc1)N(c1c[nH]c2ncc(F)cc12)C1C=CS(=O)(=O)C1` (stereo not shown) [I-479, N-(1,1-dioxo-2,3-dihydro-1lambda6-thiophen-3-yl)-N-{5-fluoro-1H-pyrrolo[2,3-b]pyridin-3-yl}-2-[4-(1H-pyrrol-1-yl)phenyl]acetamide]: the IC50 is greater than 50 µM.

With `Cn1cc(CN(C(=O)Cc2ccc(-n3cccc3)cc2)C2C=CS(=O)(=O)C2)cn1` (stereo not shown) [I-481, N-(1,1-dioxo-2,3-dihydro-1lambda6-thiophen-3-yl)-N-[(1-methyl-1H-pyrazol-4-yl)methyl]-2-[4-(1H-pyrrol-1-yl)phenyl]acetamide], the IC50 is greater than 50 µM.

Regarding `O=C(Cc1ccc(N2CC(F)(F)C2)cc1)N(Cc1ccncc1)C1C=CS(=O)(=O)C1` (stereo not shown) [I-482, 2-[4-(3,3-difluoroazetidin-1-yl)phenyl]-N-(1,1-dioxo-2,3-dihydro-1lambda6-thiophen-3-yl)-N-[(pyridin-4-yl)methyl]acetamide], the IC50 was greater than 50 µM.

As for `O=C(Cc1ccc(-n2cccc2)cc1)N(Cc1ncccn1)C1C=CS(=O)(=O)C1` (stereo not shown) [I-483, N-(1,1-dioxo-2,3-dihydro-1lambda6-thiophen-3-yl)-N-[(pyrimidin-2-yl)methyl]-2-[4-(1H-pyrrol-1-yl)phenyl]acetamide], the IC50 is greater than 50 µM.

In the case of `CCC(C(=O)N(Cc1ccncc1)C1C=CS(=O)(=O)C1)c1ccc(-n2cccc2)cc1` (stereo not shown) [I-484, N-(1,1-dioxo-2,3-dihydro-1lambda6-thiophen-3-yl)-N-[(pyridin-4-yl)methyl]-2-[4-(1H-pyrrol-1-yl)phenyl]butanamide], the IC50 was greater than 50 µM.

Regarding `O=C(Cc1ccc(-n2cccc2)cc1)N(CC1CCOCC1)C1C=CS(=O)(=O)C1` (stereo not shown) [I-485, N-(1,1-dioxo-2,3-dihydro-1lambda6-thiophen-3-yl)-N-[(oxan-4-yl)methyl]-2-[4-(1H-pyrrol-1-yl)phenyl]acetamide], the IC50 was greater than 50 µM.

As for `O=C(c1ccc(-n2cccc2)cc1)N(Cc1ccccc1)C1C=CS(=O)(=O)C1` (stereo not shown) [I-486, N-benzyl-N-(1,1-dioxo-2,3-dihydro-1lambda6-thiophen-3-yl)-4-(1H-pyrrol-1-yl)benzamide], the IC50 was greater than 50 µM.

Consider `O=C(c1ccc(-c2ccccc2)cn1)N(Cc1ccccc1)C1C=CS(=O)(=O)C1` (stereo not shown) [I-487, N-benzyl-N-(1,1-dioxo-2,3-dihydro-1lambda6-thiophen-3-yl)-5-phenylpyridine-2-carboxamide], for which the IC50 was greater than 50 µM.

With `O=C(Cn1nnc2ccccc21)N(Cc1ccncc1)C1C=CS(=O)(=O)C1` (stereo not shown) [I-492, 2-(1H-1,2,3-benzotriazol-1-yl)-N-(1,1-dioxo-2,3-dihydro-1lambda6-thiophen-3-yl)-N-[(pyridin-4-yl)methyl]acetamide], the IC50 is greater than 50 µM.

In the case of `O=C(Cc1c[nH]c2ccccc12)N(Cc1ccncc1)C1C=CS(=O)(=O)C1` (stereo not shown) [I-493, N-(1,1-dioxo-2,3-dihydro-1lambda6-thiophen-3-yl)-2-(1H-indol-3-yl)-N-[(pyridin-4-yl)methyl]acetamide], the IC50 was greater than 50 µM.

As to `O=C(Cc1ccc2c(c1)OCO2)N(Cc1ccncc1)C1C=CS(=O)(=O)C1` (stereo not shown) [I-494, 2-(2H-1,3-benzodioxol-5-yl)-N-(1,1-dioxo-2,3-dihydro-1lambda6-thiophen-3-yl)-N-[(pyridin-4-yl)methyl]acetamide], the IC50 was greater than 50 µM.

For `O=C(CCc1cc2ccccc2s1)N(Cc1ccncc1)C1C=CS(=O)(=O)C1` (stereo not shown) [I-495, 3-(1-benzothiophen-2-yl)-N-(1,1-dioxo-2,3-dihydro-1lambda6-thiophen-3-yl)-N-[(pyridin-4-yl)methyl]propanamide], the IC50 was greater than 50 µM.

As to `O=C(CCc1nc(-c2ccccc2F)no1)N(Cc1ccncc1)C1C=CS(=O)(=O)C1` (stereo not shown) [I-496, N-(1,1-dioxo-2,3-dihydro-1lambda6-thiophen-3-yl)-3-[3-(2-fluorophenyl)-1,2,4-oxadiazol-5-yl]-N-[(pyridin-4-yl)methyl]propanamide], the IC50 was greater than 50 µM.

As for `O=C(Cc1ccc(-n2cccc2)cc1)N(Cc1cccc2[nH]ccc12)C1C=CS(=O)(=O)C1` (stereo not shown) [I-497, N-(1,1-dioxo-2,3-dihydro-1lambda6-thiophen-3-yl)-N-[(1H-indol-4-yl)methyl]-2-[4-(1H-pyrrol-1-yl)phenyl]acetamide], the IC50 was greater than 50 µM.

Consider `O=C(Cc1ccc(-n2cccc2)cc1)N(Cc1ccc2[nH]ccc2c1)C1C=CS(=O)(=O)C1` (stereo not shown) [I-498, N-(1,1-dioxo-2,3-dihydro-1lambda6-thiophen-3-yl)-N-[(1H-indol-5-yl)methyl]-2-[4-(1H-pyrrol-1-yl)phenyl]acetamide], for which the IC50 is greater than 50 µM.

With `O=C(Cc1ccc(-n2cccc2)cc1)N(Cc1ccc2cc[nH]c2c1)C1C=CS(=O)(=O)C1` (stereo not shown) [I-499, N-(1,1-dioxo-2,3-dihydro-1lambda6-thiophen-3-yl)-N-[(1H-indol-6-yl)methyl]-2-[4-(1H-pyrrol-1-yl)phenyl]acetamide], the IC50 was greater than 50 µM.

Consider `O=C(CCCc1c[nH]c2ccccc12)N(Cc1ccncc1)C1C=CS(=O)(=O)C1` (stereo not shown) [I-500, N-(1,1-dioxo-2,3-dihydro-1lambda6-thiophen-3-yl)-4-(1H-indol-3-yl)-N-[(pyridin-4-yl)methyl]butanamide], for which the IC50 is greater than 50 µM.

In the case of `O=C(Cc1ccc(OCc2ccccc2)cc1)N(Cc1ccncc1)C1C=CS(=O)(=O)C1` (stereo not shown) [I-501, 2-[4-(benzyloxy)phenyl]-N-(1,1-dioxo-2,3-dihydro-1lambda6-thiophen-3-yl)-N-[(pyridin-4-yl)methyl]acetamide], the IC50 is greater than 50 µM.

Regarding `O=C(CCn1ccc2ccccc21)N(Cc1ccncc1)C1C=CS(=O)(=O)C1` (stereo not shown) [I-502, N-(1,1-dioxo-2,3-dihydro-1lambda6-thiophen-3-yl)-3-(1H-indol-1-yl)-N-[(pyridin-4-yl)methyl]propanamide], the IC50 is greater than 50 µM.

On to `O=C(Cc1ccc(Oc2ccccc2)cc1)N(Cc1ccncc1)C1C=CS(=O)(=O)C1` (stereo not shown) [I-503, N-(1,1-dioxo-2,3-dihydro-1lambda6-thiophen-3-yl)-2-(4-phenoxyphenyl)-N-[(pyridin-4-yl)methyl]acetamide], for which the IC50 is greater than 50 µM.

Turning to `O=C(Cc1ccc2cc[nH]c2c1)N(Cc1ccncc1)C1C=CS(=O)(=O)C1` (stereo not shown) [I-506, N-(1,1-dioxo-2,3-dihydro-1lambda6-thiophen-3-yl)-2-(1H-indol-6-yl)-N-[(pyridin-4-yl)methyl]acetamide], the IC50 was greater than 50 µM.

As for `O=C(CCc1ccc(C(F)(F)F)cc1)N(Cc1ccncc1)C1C=CS(=O)(=O)C1` (stereo not shown) [I-507, N-(1,1-dioxo-2,3-dihydro-1lambda6-thiophen-3-yl)-N-[(pyridin-4-yl)methyl]-3-[4-(trifluoromethyl)phenyl]propanamide], the IC50 is greater than 50 µM.

As for `O=C(CCc1cccc(OC(F)(F)F)c1)N(Cc1ccncc1)C1C=CS(=O)(=O)C1` (stereo not shown) [I-508, N-(1,1-dioxo-2,3-dihydro-1lambda6-thiophen-3-yl)-N-[(pyridin-4-yl)methyl]-3-[3-(trifluoromethoxy)phenyl]propanamide], the IC50 is greater than 50 µM.

Consider `O=C(Cc1cccc(Oc2ccccc2)c1)N(Cc1ccncc1)C1C=CS(=O)(=O)C1` (stereo not shown) [I-510, N-(1,1-dioxo-2,3-dihydro-1lambda6-thiophen-3-yl)-2-(3-phenoxyphenyl)-N-[(pyridin-4-yl)methyl]acetamide], for which the IC50 is greater than 50 µM.

In the case of `COc1ccc2cc(CC(=O)N(Cc3ccncc3)C3C=CS(=O)(=O)C3)ccc2c1` (stereo not shown) [I-511, N-(1,1-dioxo-2,3-dihydro-1lambda6-thiophen-3-yl)-2-(6-methoxynaphthalen-2-yl)-N-[(pyridin-4-yl)methyl]acetamide], the IC50 was greater than 50 µM.

Staying with this experiment, now noted: ADP-Glo_hWRN_IC50, 0.15 nM WRN, 5 μM ATP, 0.1 nM DNA duplex, 15 min preincubation, 60 min at 25° C., pH 7.5, 1% DMSO.
The molecule `O=C(CN1CC=C(c2ccccc2)CC1)N(Cc1ccncc1)C1C=CS(=O)(=O)C1` (stereo not shown) [I-478, N-(1,1-dioxo-2,3-dihydro-1lambda6-thiophen-3-yl)-2-(4-phenyl-1,2,3,6-tetrahydropyridin-1-yl)-N-[(pyridin-4-yl)methyl]acetamide] gave an IC50 greater than 50 µM.
